Experimental data from ChEMBL document CHEMBL1201862, “PubChem BioAssay data set” (2004).
Calls of active or inactive are those of the source.

What was measured:
[1] = target: T1, Low molecular weight phosphotyrosine protein phosphatase (Homo sapiens, UniProt P24666); experiment: LMPTP phosphatase inhibitors, dose response, biochemical, OMFP substrate, fluorescence intensity, set 2 (AID 743307); format: functional
T1 sequence (P24666 whole entry): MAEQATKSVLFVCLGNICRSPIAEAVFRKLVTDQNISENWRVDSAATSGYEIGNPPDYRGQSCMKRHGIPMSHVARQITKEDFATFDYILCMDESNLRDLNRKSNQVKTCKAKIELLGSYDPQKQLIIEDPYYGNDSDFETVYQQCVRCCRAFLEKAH

[2] = target: T1, Low molecular weight phosphotyrosine protein phosphatase; experiment: LMPTP phosphatase inhibitors, colorimetric pNPP readout, dose response, orthogonal assay, biochemical, absorbance, pNPP substrate, LMPTP-A isoform, set 2 (AID 743308); format: functional
[3] = target: Mitogen-activated protein kinase 10 (Homo sapiens, UniProt P53779); experiment: Dose response biochemical screening assay for inhibitors of c-Jun N-Terminal Kinase 3 (JNK3). [Related pubchem assays: 746 ]
Leucine aminopeptidase = target: T2, Leucine aminopeptidase (Plasmodium falciparum 3D7, UniProt Q8IL11); experiment: P. falciparum M17LAP inhibitors, primary screen, biochemical, fluorogenic H-Leu-NHMec substrate, 1536-well (AID 1619); format: functional
T2 sequence (Q8IL11 whole entry): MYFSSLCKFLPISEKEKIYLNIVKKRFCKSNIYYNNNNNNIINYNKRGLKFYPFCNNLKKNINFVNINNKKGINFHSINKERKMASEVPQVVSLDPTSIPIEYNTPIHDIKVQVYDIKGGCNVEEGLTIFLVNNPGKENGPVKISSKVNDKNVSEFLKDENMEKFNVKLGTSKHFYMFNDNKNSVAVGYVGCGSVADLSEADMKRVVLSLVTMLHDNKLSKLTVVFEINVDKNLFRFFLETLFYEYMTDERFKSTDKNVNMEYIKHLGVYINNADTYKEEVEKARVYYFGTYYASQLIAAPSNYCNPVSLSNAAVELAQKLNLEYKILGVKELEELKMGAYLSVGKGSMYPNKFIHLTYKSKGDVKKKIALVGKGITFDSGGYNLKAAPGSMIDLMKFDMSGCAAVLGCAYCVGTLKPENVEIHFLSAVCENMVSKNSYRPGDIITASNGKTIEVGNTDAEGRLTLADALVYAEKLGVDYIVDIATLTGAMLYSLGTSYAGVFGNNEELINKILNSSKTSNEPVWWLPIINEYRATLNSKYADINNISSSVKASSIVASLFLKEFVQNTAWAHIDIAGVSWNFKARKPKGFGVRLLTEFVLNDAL

[4] = target: Ubiquitin carboxyl-terminal hydrolase BAP1 (Homo sapiens, UniProt Q92560); experiment: BAP1 deubiquitinase inhibitors, dose response, biochemical (AID 714); format: functional
Estrogen receptor = Estrogen receptor (Homo sapiens, UniProt P03372);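 note: potency for inhibiting coactivator peptide recruitment to the receptor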
Estrogen receptor beta = Estrogen receptor beta (Homo sapiens, UniProt Q92731); experiment: ERβ–SRC-3 coactivator interaction inhibitors, confirmation, orthogonal assay, biochemical, ELISA, streptavidin-HRP readout (AID 1060)
[5] = target: T3, Carboxy-terminal domain RNA polymerase II polypeptide A small phosphatase 1 (Homo sapiens, UniProt Q9GZU7); experiment: inhibitors of CTDSP1, concentration-response testing, biochemical assay, absorbance-based, actives from ultra-high-throughput screening (AID 540297); format: functional
T3 sequence (Q9GZU7 whole entry): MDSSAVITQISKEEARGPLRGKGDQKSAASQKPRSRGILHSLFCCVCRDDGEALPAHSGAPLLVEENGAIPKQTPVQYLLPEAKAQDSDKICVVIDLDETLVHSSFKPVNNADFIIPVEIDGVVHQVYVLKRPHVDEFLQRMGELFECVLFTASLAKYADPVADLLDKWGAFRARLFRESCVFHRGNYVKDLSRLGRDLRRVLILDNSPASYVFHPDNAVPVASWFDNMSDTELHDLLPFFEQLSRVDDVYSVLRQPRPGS

[6] = P. falciparum late gametocyte killing, dose response, luminescence (AID 1117278); format: functional, cell-based;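 note: gametocytes exposed to compound for 24 hours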
[7] = Jurkat T cell cytotoxicity, dose response, cytotoxicity control for P. falciparum gametocyte viability project, luminescence (AID 1117277); format: functional, cell-based;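 note: potency reflects loss of cellular ATP meaning fewer viable cells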
[8] = target: Sphingosine 1-phosphate receptor 2 (Homo sapiens, UniProt O95136); experiment: Dose Response Cell Based Assay for Antagonists of the S1P2 Receptor. [Related pubchem assays: 856, 736 ]; format: functional
INS1 = experiment: beta cell apoptosis inhibitors, cytokine rescue, dose response, luminescence, retest (AID 449756); format: functional, cell-based; conditions: Rattus norvegicus;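 note: cell death triggered by IL-1 beta plus TNF-alpha plus IFN-gamma mixture; protective hits raise ATP signal compared with cytokine alone wells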
[9] = target: T4, COUP transcription factor 2 (Homo sapiens, UniProt P24468); experiment: Luminescence-based cell-based high throughput dose response assay to identify inhibitors of COUP-TFII (NR2F2).; format: functional;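 note: HEK293 cells transiently cotransfected with COUP-TFII expression vector and reporter; luciferase reporter luminescence driven by COUP-TFII from the pX2-168 reporter plasmid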
T4 sequence (P24468 whole entry): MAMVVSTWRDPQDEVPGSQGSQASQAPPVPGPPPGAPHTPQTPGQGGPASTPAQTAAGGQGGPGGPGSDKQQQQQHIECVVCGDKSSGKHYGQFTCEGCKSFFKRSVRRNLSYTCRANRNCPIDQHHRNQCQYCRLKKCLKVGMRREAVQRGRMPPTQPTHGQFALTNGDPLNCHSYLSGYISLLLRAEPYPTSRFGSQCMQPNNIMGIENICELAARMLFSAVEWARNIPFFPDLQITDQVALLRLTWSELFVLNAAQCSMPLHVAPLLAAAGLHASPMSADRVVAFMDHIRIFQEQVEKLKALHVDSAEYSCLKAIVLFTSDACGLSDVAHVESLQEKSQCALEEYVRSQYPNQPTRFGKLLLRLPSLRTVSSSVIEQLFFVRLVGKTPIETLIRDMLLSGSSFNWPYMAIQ

[10] = inhibitors of firefly luciferase expression or activity, dose response, H4 neuroglioma cells, luminescence (AID 1990); format: functional, cell-based
[11] = Luminescence Cell-Based Dose Response HTS to Identify Inhibitors of 5'UTR Stem-Loop Driven Prion Protein mRNA Translation in H4 Neuroglioblastoma Cells. [Related pubchem assays: 1827 (Project Summary), 1813 (Primary HTS)]; format: functional
[12] = inhibitors of SNCA 5'UTR-driven reporter translation, confirmation, H4 neuroglioma cells, luminescence (AID 1988); format: functional, cell-based
[13] = inhibitors of Vif binding to APOBEC3G peptide, primary screen, biochemical, TR-FRET, GST-Vif 1-94, biotin-A3G peptide, dose response retest (AID 1117319); format: functional;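 note: TR-FRET signal of purified GST-Vif binding a biotinylated A3G peptide; inhibitors lower the FRET signal by blocking Vif and A3G binding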
[14] = Vero cell cytotoxicity, dose response, cytotoxicity control for Vif-APOBEC3G degradation inhibitor project, Vero cells (AID 1117358); format: functional; conditions: Human immunodeficiency virus 1, Vero
HEK293 [15] = experiment: cells; conditions: Homo sapiens
HEK293 [16] = experiment: cells; conditions: Homo sapiens; remark: listed apart in the source
[17] = target: G-protein coupled receptor 183 (Homo sapiens, UniProt P32249); experiment: SAR confirmation of small molecule antagonists of the EBI2 receptor via a luminescent beta-arrestin assa.; format: functional
[18] = P. falciparum Dd2 growth inhibitors, dose response, SYBR Green, cherry-picked samples (AID 1159567); format: functional, cell-based
[19] = HepG2 cell cytotoxicity, dose response, cytotoxicity control, cherry-picked samples (AID 1159577); format: functional, cell-based
[20] = P. falciparum Dd2 growth inhibitors, dose response, SYBR Green, dry powder samples, set 9 (AID 1159568); format: functional, cell-based
[21] = Luminescent dose response cell-based high throughput screening assay for inhibitors of the Janus kinase 2 mutant JAK2V617F. [Related pubchem assays: 1446 (Primary screen.), 1521 (Confirmation assay.), 1486 (Counter screen.)]; format: functional
[22] = inhibitors of intracellular T. cruzi replication, confirmation, NIH3T3 host cells, beta-gal luminescence (AID 2044); format: functional, cell-based;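 note: intracellular parasites grown in NIH/3T3 mouse fibroblasts as host cells; luminescent beta-galactosidase reporter signal from transgenic T. cruzi replicating inside host cells; inhibitors lower the luminescence signal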
[23] = cytotoxicity toward NIH3T3 fibroblasts, dose response, counter-screen, cell-based, ATP luminescence, mouse fibroblasts (AID 2010); format: functional;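 note: cells exposed to compound for about 90 hours before reading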
[24] = THP-1 cell cytotoxicity, dose response, cytotoxicity control for non-replicating M. tuberculosis project (AID 489025); format: functional
[25] = Vero E6 cell cytotoxicity, dose response, cytotoxicity control for non-replicating M. tuberculosis project, secondary assay (AID 492998); format: functional, VeroE6; conditions: Vero C1008
cells = format: functional
HEK293 [26] = experiment: inhibitors of LMP1-driven NF-kB reporter, dose response, cell-based, HEK293, luciferase, cherry-pick (AID 588343); format: functional; conditions: Homo sapiens
[27] = HeLa 2N DNA content increase, dose response, cell-based, IC50 (AID 1117349); format: functional
[28] = Concentration-dependent survival of SW480 colon cancer line, luminescence detection with CellTiter-Glo, half-maximal inhibitory concentration (AID 1117338); format: functional
[29] = RKO cell viability reduction, dose response, CellTiter-Glo luminescence (AID 1117322); format: functional
[30] = cytotoxicity toward HCT116 cells – cell-based, CellTiter-Glo luminescence, IC50, dose response (AID 1117332); format: functional; conditions: HCT-116
[31] = SNU-C1 cell viability reduction, dose response, CellTiter-Glo luminescence (AID 1117323); format: functional, cell-based
[32] = cytotoxicity toward Colo320 cells – cell-based, CellTiter-Glo luminescence, IC50, dose response (AID 1117334); format: functional; conditions: COLO 320
[33] = HeLa 4N DNA content increase, dose response, cell-based, IC50 (AID 1117351); format: functional
[34] = cytotoxicity toward HT-29 cells – cell-based, CellTiter-Glo luminescence, IC50, dose response (AID 1117330); format: functional
[35] = CellTiter-Glo luminescent dose response of DLD-1 viability loss (AID 1117352); format: functional
[36] = HCT116 cell viability decrease, GSK3B pretreatment – CellTiter-Glo, IC50, dose response (AID 1117339); format: functional; conditions: HCT-116
[37] = target: Voltage-gated inwardly rectifying potassium channel KCNH2 (Homo sapiens, UniProt Q12809); experiment: hERG protection from proarrhythmic block, potency, dose response, cell-based, thallium flux (AID 2121); format: ADME
Hexokinase = target: T5, Hexokinase (Trypanosoma brucei, UniProt Q38C41); experiment: Confirmation assay for inhibitors of Trypanosoma brucei hexokinase 1-Analogue-first series. [Related pubchem assays (depositor defined):AID1430, AID1632, AID2516, AID2560, AID2579, AID2600, AID449725, AID492951]; format: functional
T5 sequence (Q38C41 whole entry): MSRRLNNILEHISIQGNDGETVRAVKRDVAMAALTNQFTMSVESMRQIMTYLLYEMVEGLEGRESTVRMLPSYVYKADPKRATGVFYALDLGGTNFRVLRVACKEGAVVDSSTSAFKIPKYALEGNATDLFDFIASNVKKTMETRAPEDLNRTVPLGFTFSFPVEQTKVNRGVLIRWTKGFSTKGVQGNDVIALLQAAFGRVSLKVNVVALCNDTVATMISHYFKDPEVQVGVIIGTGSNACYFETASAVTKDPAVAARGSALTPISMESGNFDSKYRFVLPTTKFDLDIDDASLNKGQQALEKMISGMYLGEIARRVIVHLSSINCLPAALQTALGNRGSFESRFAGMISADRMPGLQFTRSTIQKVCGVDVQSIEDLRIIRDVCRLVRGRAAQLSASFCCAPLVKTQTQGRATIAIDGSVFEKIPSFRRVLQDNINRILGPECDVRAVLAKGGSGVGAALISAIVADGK

Chain of Mitogen-activated protein kinase 10 (P53779 whole entry): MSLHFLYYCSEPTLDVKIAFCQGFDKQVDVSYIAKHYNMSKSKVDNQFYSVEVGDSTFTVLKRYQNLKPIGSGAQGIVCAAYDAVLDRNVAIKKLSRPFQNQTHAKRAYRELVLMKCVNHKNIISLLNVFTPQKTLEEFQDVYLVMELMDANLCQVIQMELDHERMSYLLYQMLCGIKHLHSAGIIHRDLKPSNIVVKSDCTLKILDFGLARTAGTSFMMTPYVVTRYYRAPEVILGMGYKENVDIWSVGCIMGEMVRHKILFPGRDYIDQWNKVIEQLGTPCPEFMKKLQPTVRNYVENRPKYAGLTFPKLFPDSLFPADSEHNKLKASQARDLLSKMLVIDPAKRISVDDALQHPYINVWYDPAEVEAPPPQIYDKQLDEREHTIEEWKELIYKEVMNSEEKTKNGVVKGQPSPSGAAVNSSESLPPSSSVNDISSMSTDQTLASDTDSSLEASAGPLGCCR
Chain of Estrogen receptor beta (Q92731 whole entry, the tested form may be a part): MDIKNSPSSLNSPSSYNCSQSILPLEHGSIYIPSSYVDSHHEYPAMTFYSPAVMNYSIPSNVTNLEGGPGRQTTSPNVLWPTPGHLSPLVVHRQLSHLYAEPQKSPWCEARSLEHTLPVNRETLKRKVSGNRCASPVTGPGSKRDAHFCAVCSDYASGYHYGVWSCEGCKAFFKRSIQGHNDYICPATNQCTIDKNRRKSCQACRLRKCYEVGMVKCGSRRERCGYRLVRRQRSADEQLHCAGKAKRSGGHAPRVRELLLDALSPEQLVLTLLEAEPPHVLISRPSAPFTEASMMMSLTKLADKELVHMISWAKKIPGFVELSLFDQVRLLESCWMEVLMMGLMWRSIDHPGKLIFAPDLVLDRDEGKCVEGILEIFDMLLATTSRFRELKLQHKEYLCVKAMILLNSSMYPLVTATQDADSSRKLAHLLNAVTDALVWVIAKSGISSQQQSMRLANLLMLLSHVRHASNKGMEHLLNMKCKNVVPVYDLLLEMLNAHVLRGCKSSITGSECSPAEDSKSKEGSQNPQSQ
Chain of Voltage-gated inwardly rectifying potassium channel KCNH2 (Q12809 whole entry): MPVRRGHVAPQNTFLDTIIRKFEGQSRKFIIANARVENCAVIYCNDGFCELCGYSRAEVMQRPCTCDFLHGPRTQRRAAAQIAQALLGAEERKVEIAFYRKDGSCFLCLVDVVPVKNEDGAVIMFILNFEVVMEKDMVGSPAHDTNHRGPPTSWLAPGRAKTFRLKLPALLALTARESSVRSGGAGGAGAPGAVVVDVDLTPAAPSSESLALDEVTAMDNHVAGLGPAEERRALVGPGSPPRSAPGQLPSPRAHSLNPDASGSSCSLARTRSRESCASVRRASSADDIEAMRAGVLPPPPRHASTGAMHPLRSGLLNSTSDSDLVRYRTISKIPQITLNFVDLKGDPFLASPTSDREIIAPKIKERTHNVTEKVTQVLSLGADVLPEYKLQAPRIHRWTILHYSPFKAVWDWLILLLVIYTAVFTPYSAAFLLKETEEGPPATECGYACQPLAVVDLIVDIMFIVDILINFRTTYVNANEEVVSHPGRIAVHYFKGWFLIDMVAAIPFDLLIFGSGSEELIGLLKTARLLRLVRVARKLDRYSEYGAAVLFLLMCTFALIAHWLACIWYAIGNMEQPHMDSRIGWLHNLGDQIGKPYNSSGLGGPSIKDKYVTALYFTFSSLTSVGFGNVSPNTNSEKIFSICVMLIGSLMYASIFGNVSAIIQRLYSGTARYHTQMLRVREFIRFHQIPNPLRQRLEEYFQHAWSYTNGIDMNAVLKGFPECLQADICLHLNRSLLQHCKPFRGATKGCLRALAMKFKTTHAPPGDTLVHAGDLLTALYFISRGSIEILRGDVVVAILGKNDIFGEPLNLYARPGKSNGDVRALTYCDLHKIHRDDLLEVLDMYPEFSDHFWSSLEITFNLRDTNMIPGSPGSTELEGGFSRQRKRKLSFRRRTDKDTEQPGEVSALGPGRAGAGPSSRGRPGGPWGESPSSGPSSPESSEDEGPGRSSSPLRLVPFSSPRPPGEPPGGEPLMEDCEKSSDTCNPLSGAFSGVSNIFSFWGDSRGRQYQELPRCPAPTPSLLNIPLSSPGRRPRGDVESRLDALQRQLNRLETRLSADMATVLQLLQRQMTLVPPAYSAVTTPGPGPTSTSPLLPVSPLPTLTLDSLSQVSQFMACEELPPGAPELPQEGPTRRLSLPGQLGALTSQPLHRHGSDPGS
Chain of G-protein coupled receptor 183 (P32249 whole entry): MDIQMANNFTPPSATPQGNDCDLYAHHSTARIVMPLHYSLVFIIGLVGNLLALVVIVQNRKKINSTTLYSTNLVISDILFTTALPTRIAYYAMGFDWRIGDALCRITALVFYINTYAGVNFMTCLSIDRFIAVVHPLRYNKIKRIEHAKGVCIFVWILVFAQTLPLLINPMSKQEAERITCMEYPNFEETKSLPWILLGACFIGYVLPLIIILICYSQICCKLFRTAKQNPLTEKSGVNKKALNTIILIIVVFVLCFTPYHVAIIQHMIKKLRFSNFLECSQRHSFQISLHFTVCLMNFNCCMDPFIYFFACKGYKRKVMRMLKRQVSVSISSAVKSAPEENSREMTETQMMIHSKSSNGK
Chain of Ubiquitin carboxyl-terminal hydrolase BAP1 (Q92560 whole entry): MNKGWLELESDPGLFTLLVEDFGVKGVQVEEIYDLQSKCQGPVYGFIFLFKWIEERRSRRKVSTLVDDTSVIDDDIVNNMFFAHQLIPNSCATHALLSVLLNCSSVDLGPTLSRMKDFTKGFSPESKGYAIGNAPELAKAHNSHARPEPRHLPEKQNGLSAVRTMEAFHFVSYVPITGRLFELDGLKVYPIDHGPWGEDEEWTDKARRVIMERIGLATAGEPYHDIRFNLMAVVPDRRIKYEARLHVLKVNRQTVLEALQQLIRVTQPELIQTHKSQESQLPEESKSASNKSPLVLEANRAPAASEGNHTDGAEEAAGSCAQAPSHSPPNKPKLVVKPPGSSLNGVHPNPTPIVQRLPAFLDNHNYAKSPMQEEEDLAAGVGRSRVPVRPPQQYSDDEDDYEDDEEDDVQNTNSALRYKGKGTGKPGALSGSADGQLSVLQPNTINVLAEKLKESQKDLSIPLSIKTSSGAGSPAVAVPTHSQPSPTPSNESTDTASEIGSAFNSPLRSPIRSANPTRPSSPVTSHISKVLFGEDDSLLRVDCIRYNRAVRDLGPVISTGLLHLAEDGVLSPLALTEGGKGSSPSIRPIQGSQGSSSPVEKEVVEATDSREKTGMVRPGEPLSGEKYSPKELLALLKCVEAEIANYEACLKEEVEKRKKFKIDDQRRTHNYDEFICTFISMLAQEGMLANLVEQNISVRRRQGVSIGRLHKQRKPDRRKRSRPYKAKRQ
Chain of Sphingosine 1-phosphate receptor 2 (O95136 whole entry): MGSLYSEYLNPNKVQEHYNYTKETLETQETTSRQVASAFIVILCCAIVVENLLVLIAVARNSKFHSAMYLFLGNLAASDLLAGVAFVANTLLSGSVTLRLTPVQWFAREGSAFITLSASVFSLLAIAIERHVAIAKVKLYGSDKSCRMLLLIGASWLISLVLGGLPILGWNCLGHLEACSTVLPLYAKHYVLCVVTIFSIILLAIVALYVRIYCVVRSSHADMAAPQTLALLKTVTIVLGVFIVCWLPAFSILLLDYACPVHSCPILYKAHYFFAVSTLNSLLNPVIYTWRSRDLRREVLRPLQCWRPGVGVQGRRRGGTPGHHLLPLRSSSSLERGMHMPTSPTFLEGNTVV
Chain of Estrogen receptor (P03372 whole entry): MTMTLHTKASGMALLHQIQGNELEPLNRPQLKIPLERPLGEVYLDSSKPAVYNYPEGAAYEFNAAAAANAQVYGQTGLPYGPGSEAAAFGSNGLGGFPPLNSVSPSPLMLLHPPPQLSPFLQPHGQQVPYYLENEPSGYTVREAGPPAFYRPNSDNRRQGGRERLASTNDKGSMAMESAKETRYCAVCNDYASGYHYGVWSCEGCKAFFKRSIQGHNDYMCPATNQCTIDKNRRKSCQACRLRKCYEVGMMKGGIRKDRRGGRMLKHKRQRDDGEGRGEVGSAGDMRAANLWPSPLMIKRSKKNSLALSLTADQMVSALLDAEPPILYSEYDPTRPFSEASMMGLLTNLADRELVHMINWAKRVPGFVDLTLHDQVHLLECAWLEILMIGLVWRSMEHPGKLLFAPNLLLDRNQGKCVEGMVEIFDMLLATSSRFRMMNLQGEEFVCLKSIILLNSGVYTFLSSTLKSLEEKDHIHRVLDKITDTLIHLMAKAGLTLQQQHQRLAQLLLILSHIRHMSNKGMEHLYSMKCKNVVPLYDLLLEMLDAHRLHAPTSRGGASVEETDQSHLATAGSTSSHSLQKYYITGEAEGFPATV

c1ccc2c(NCCCN3CCCCC3)cc(-c3ccncc3)nc2c1
IC50 [1]: 2.48 µM (active) | IC50 [2]: 6.49 µM (active)

COc1ccc(C2C(C#N)=C(N)SC(N)=C2C#N)cc1OC
IC50 [3]: > 31 µM (not active)

CCOC(=O)c1ccc(NC(=O)CSc2nc(C)cc(=O)[nH]2)cc1
IC50 (Leucine aminopeptidase): 11.8 µM (active) | IC50 [4]: 23.3 µM (active) | IC50 (Estrogen receptor): 3.06 µM (active) | IC50 (Estrogen receptor beta): < 0.023 µM (not active) | IC50 [5]: 2.67 µM (active)

CC(=O)c1c(C)[nH]c(C(=O)COC(=O)C2CC2)c1C
IC50 [6]: > 109 µM (inactive) | IC50 [7]: > 83.2 µM (inactive)

CCOC(=O)N1CCN(C(=O)CSCC(=O)Nc2nc(-c3ccc(-c4ccccc4)cc3)cs2)CC1
IC50 [8]: 2.47 µM (active) | AC50 (INS1): 4.63 µM (active) | IC50 [9]: 5.66 µM (active)

CC(C)c1nc2sc3c(NCc4ccco4)ncnc3c2c2c1COC(C)(C)C2
EC50 [10]: 19.2 µM (active) | EC50 [11]: > 120 µM (not active) | EC50 [12]: > 120 µM (not active) | IC50 [13]: > 50 µM (active) | CC50 [14]: > 40 µM (active) | EC50 (HEK293 [15]): > 59.6 µM (inactive) | EC50 (HEK293 [16]): > 59.6 µM (inactive)

Cc1ccc(S(=O)(=O)N2CCN(C(=O)/C=C/c3ccc(F)cc3)CC2)cc1
IC50 [17]: 0.00767 µM (active)

Cc1ccccc1S(=O)(=O)N1CC(=O)N2[C@H](C1)[C@@H](c1ccc(C#CCC3CCCC3)cc1)[C@@H]2CO
AC50 [18]: 3.64 µM (active) | AC50 [19]: > 42 µM (inactive)

COc1ccc2c3c(n(C)c2c1)[C@@H](CO)N(Cc1ccc2c(c1)OCO2)CC31CN(C(=O)c2ccc3c(c2)OCO3)C1
AC50 [20]: 1.21 µM (active)

COc1ccccc1-c1nnc(Sc2nc([N+](=O)[O-])nn2C)o1
IC50 [21]: 1.52 µM (active) | EC50 [22]: 0.556 µM (active) | EC50 [23]: 17.5 µM (active) | CC50 [24]: 13.6 µM (active) | CC50 [25]: 17.5 µM (active) | IC50 (cells): 1.95 µM (active) | AC50 (HEK293 [26]): 4.37 µM (active)

Cc1c(C)c2c(c(C)c1O)CCC(C)(COc1ccc(CC3SC(=O)NC3=O)cc1)O2 (stereo not drawn) [TROGLITAZONE]
IC50 [27]: > 10 µM (inactive) | IC50 [28]: 5.59 µM (inactive) | IC50 [29]: 7.76 µM (inactive) | IC50 [30]: 1.4 µM (active) | IC50 [31]: > 20 µM (inactive) | IC50 [32]: 9.49 µM (inactive) | IC50 [33]: > 10 µM (inactive) | IC50 [34]: > 20 µM (inactive) | IC50 [35]: 12.3 µM (inactive) | IC50 [36]: 1.3 µM (active)

COc1ccc(C(=O)Nc2ccccc2C(=O)O)cc1Cl
EC50 [37]: 13 µM (active) | IC50 (Hexokinase): > 25 µM (inactive)
